This note sets out measurements from article PMC5118709, “Identification of Polo-like kinase 1 interaction inhibitors using a novel cell-based assay” (Scientific Reports, 2016).

Experiment [1] concerns the target T1, Plk1-Map interaction (Homo sapiens, UniProt P53350). The experiment in a line: LUMIER co-immunoprecipitation assay Plk1-Map.
Experiment [2] concerns the target T2, CRAF-BRAF (Homo sapiens, UniProt P04049+P15056).
T2 construct: expressed in transfected cells; host or cells: HEK293T, transient transfection with PEI
The experiment in a line: control BRET CRAF-BRAF (transient). The experiment is classed as cell-based. How it is done: (§1) We used our cell-based assay to screen a library of 112 983 compounds available in-house at IRIC’s High-Throughput Screening (HTS) platform (see Materials & Methods). Compounds were tested on cells in 384-well plates at concentrations between 10 μM and 25 μM, depending on their concentration in the original stocks solutions. BRET readings were taken 2 hours after treatment. Results obtained show a tight, close to normal distribution centered around zero inhibition relative to DMSO-treated controls (Fig. 1D). Compounds inducing at least 30% BRET inhibition were selected. From these, auto-fluorescent compounds and those that induced more than 90% reduction in RLucII luminescence were removed, leaving 800 primary hits, that we then re-tested using the same assay. In parallel, we tested these compounds in a control BRET assay for an unrelated pair of interacting proteins (BRAF-CRAF[46]) to exclude false-positive compounds that could reduce the BRET signal by interfering with light or by modifying the activity of GFP or Luc.
(§2) For the confirmation screen, the same procedure as for the primary screen was followed, except that HEK293T cells were also seeded at 6.25 millions of cells per simple CellStack on day 1 for transient transfections. These cells were transfected on day 3 with Luc-Map (5 μg) and Plk1-GFP (25 μg) pIRESHyg3 plasmids using polyethylenimine (PEI). To identify false-positives compounds, Luc-CRAF (4 μg) and GFP-BRAF (20 μg) plasmids were also transfected with PEI following the published procedure.
Background: BRET reads energy transfer from a luciferase to a nearby fluorophore.

The target in experiment [3] is T3, Plk1 (Homo sapiens, UniProt P53350).
T3 construct: localization of Plk1-GFP or endogenous Plk1 from mitotic centrosomes, kinetochores or the cytokinetic midbody; endogenous in cells
T3 sequence (P53350 whole entry): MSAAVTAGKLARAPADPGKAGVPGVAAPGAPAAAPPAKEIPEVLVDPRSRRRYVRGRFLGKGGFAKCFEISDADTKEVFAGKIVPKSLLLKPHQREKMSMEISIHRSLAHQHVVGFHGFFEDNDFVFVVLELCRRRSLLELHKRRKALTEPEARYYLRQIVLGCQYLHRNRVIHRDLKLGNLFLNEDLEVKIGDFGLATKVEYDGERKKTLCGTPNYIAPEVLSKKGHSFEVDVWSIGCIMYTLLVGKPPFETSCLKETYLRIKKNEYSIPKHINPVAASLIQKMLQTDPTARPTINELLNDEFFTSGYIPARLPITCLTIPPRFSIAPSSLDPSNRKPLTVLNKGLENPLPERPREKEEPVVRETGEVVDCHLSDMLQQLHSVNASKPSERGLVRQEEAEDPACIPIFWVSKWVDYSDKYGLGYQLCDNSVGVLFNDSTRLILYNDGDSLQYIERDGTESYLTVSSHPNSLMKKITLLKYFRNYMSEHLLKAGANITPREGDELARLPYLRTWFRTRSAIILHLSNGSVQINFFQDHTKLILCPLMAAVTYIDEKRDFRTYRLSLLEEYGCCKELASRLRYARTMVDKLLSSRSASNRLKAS
The experiment in a line: localization of Plk1 in mitotic cells. The experiment is classed as cell-based. As to conditions: up to 100 μM, data not shown.

For experiment [4], the target named is T1, Plk1-Map interaction. The experiment in a line: BRET Plk1-Map, stable HEK293T Plk1-Luc/GFP-Map cell line. It is filed as cell-based. On the set-up: cDNAs for the human full length Plk1; expressed in transfected cells.
Excerpt: To develop a cell-based assay for the identification of Plk1 interaction inhibitors, we used Bioluminescence Resonance Energy Transfer (BRET)[42][43]. The assay monitors the interaction in HEK293T cells between Plk1 and Map205, a protein that we previously identified as an interactor of Drosophila Polo (Plk1 ortholog) on its PBD[44]. Although no ortholog of Drosophila Map205 has been found in vertebrates, this protein robustly interacts with vertebrate Plk1. […] Importantly, crystallography with zebrafish Plk1 has recently shown that Map205 nevertheless docks in the canonical phosphopeptide binding site of the PBD, with the natural phospho-mimetic Glu314 residue (Fig. 1A)[45]. In our assay, human Plk1 and a fragment of Drosophila Map205 (Map205_254-416 = Map) are respectively fused to Renilla luciferase II (Luc) and GFP10 (GFP), giving rise to energy transfer when the proteins are in close proximity (Fig. 1B). […] All combinations of Plk1 and Map tagged with Luc and GFP were tested (Supplementary Fig. S1). The Plk1-Luc/GFP-Map combination was selected because it yielded the highest BRET dynamic window. We then generated clonal stable cell lines co-expressing these two fusion proteins. These cell lines behaved very similarly to each other in BRET, and we selected one line that gave a high and reproducible BRET signal, with a Z′ score of 0.78, indicative of a robust assay for the purpose of a chemical screen (Supplementary Fig. S1).
as §1
For BRET on transiently transfected cells, 48 hours after the transfection, medium was removed, cells were washed twice with PBS, and then Tyrode solution (140 mM NaCl, 2.7 mM KCl, 12 mM NaHCO3, 5.6 mM D-glucose, 0.49 mM MgCl2, 0.37 mM NaH2PO4, 25 mM HEPES, pH 7.4, where 1 mM CaCl2 was freshly added) was added to the cells. Total fluorescence was first measured using a FlexStation II microplate reader (Molecular Devices), where the GFP10 was excited at 400 nm and read at 510 nm. Then, cells were treated for 5 minutes with 2.5 μM coelenterazine 400a (Gold Technology) before reading BRET2 using the Mithras LB940 microplate reader (Berthold Technologies). BRET2 signal corresponds to the light emitted by the GFP10 acceptor constructs (515 nm ± 20 nm) divided by the light emitted by the RlucII donor constructs (400 nm ± 70 nm). Net BRET2 was calculated by subtracting the background BRET ratio of the RLucII plasmid alone from the BRET ratio obtained by the two BRET partners. The Net BRET2 was plotted according to the GFP10/RLucII ratio, which was obtained by dividing the total fluorescence by the RLucII emission.
For the high throughput chemical screen, cells were amplified and frozen as multiple 1 ml aliquots containing 25 millions of stable HEK293T Plk1-Luc/GFP-Map cells to ensure that cells at the same passage number are used during the screen. […] Five days later, cells were counted and re-suspended in Tyrode solution. […]

Experiment [5] has as its system HEK293T cells. The experiment in a line: mitotic index assay (phospho-Histone H3) in HEK293T cells. The following applies: 10 μM.
Description: For the mitotic index assay, 4000 HeLa cells or 5000 HEK293T cells per well were seeded in a 96-well plate. The day after, cells were incubated for 7 hours with different compounds, and then fixed by adding formaldehyde (4% final concentration) directly to each well. Plates were incubated 20 minutes at 37 °C, and then wells were rinsed three times with TBS-Tween 0.1%. A 1 hour block with PHEM buffer (60 mM Pipes, 25 mM HEPES, 10 mM EGTA, 4 mM MgSO4, pH 6.9) containing 2% BSA and 0.1% triton was performed, before addition of the primary antibody to the wells. The anti-phospho-Histone H3 (Ser10) antibody (EMD Millipore) was diluted 1:300 in PHEM buffer containing 2% BSA and added to the wells for 2 hours at room temperature in the dark. […] Plates were incubated for 1h 30 at room temperature in the dark, and then wells were washed 3 times with TBS-Tween 0.1%. A solution of Mowiol containing DAPI was finally added to the wells. Plates were kept at 4 °C in the dark until imaging using the 20x objective on an Operetta system (Perkin Elmer inc.). The mitotic index, corresponding to the percentage of pHH3 positive cells relative to the total number of DAPI-stained cells detected was calculated by the Operetta using the Harmony 3.5 software. Experiments were done in triplicates.
Experiment [6] concerns the target PBD of Plk1 (Homo sapiens, UniProt P53350). The experiment in a line: fluorescence polarization assay PBD-Map peptide. It is filed as binding. How it is done:
The FP buffer was composed of 10 mM Tris pH 8.0, 50 mM NaCl, 1 mM EDTA, 20% glycerol and 0.1% NP-40. The peptide (final concentration 10 nM) was always added to the wells of non-binding, black, 384-well plates, 1 hour after the addition of the protein with the buffer (+/− treatment, 10% DMSO). […] EC65s were used to perform the competitive assays with the non-labeled peptides and with the inhibitors. FP Inhibition was calculated with the formula: 100 − [((mPsample − mPfree peptide)\(mPDMSO − mPfree peptide)) × 100]. […] (Map peptide), and corresponding non-labeled peptides are identical but without FITC in N-terminal. […] Inhibition curves were fitted with GraphPad (Prism software).
Background: Polarisation of emitted light reports the rotation of a fluorescent probe.

Experiment [7] concerns the target T1, Plk1-Map interaction. The experiment in a line: BRET Plk1-Map, transient Luc-Map/Plk1-GFP in HEK293T. It is filed as cell-based. On the set-up: cDNAs for the human full length Plk1; expressed in transfected cells. The following applies: confirmation screen. How it is done:
as §2

SMILES strings stand for the structures. “And” between values parts separate entries of the source, which are not always exact repeats. Identical values can stand only once.

T1 sequence (P53350 whole entry): as above
T2 sequence (P04049 whole entry): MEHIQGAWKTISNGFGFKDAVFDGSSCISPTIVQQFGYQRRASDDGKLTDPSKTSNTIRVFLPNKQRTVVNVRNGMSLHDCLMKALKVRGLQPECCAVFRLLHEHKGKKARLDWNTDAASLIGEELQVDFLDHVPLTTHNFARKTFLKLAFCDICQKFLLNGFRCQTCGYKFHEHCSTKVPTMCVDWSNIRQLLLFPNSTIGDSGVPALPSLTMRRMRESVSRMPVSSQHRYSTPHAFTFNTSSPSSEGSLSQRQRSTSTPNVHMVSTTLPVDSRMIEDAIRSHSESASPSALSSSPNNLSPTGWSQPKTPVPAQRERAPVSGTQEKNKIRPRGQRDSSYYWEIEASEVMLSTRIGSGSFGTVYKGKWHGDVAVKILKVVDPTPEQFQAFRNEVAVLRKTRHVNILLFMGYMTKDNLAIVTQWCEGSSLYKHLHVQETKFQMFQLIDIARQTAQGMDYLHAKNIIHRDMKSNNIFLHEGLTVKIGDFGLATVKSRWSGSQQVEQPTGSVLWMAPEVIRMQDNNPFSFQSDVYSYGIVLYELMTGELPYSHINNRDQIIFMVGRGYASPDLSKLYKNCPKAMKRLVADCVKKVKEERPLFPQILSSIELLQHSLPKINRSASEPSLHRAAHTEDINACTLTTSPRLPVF
T2 sequence (P15056 whole entry): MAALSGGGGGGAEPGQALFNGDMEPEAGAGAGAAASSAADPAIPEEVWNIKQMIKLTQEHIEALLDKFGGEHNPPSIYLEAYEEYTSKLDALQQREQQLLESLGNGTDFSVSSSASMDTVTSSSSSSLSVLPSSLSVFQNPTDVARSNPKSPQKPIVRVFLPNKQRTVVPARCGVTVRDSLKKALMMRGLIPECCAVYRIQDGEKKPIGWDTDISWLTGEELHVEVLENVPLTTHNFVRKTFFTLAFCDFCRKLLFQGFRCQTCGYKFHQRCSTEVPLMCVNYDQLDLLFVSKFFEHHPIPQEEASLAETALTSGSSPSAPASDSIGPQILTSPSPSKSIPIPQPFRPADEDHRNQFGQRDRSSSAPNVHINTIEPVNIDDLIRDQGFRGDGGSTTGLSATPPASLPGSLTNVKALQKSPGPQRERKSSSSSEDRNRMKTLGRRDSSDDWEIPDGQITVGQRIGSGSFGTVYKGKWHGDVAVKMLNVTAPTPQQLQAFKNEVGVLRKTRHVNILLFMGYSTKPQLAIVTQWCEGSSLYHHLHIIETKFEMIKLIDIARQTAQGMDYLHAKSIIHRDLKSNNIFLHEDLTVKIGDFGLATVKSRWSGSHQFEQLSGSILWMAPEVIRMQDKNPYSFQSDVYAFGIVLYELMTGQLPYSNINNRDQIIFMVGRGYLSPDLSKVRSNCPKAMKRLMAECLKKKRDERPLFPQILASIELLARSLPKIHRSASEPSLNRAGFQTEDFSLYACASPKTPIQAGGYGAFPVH
Chain of PBD of Plk1 (P53350 367-603 limits assumed): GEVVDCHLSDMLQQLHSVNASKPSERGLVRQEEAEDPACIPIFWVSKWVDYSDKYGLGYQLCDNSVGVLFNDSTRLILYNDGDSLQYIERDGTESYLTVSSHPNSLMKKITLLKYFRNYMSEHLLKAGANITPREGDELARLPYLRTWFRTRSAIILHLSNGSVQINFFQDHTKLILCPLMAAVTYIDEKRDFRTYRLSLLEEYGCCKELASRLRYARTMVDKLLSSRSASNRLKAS

On to `Cc1cc(C(F)(F)F)cc(S(=O)(=O)CCOC(=O)c2cccc(Cl)c2)n1` [Cpd 16, 2-((6-methyl-4-(trifluoromethyl)pyridin-2-yl)sulfonyl)ethyl 3-chlorobenzoate], for which, in experiment [1] (10-25 μM, 2 h), the “Average-Beads (mean luminescence)” value is 25,276, the “Co-IP Values relative to top in plate column = 1” value is given as 0.022 and the “effect on the Plk1-Map interaction in co-IP” value was “disrupts the interaction with similar or better efficiency than TQ or PPG”. Further, the “Relative Luminescence Unit” value in experiment [1] (mean divided by maximum mean of the compounds) is on record as 0.022. In addition, in experiment [1] (raw data, 10-25 μM, 2 h), the “Luminescence on beads, duplicate wells” value is 21,904 and 28,648. For the same molecule, in experiment [2] (10-25 μM), the “Primary screen CRAF-BRAF (transient) % Inihibition” value amounted to 52.83% and the “Primary screen CRAF-BRAF (transient) % Quench RLuc” value turned out to be 88.39%. In experiment [2] (confirmation screen), the “Confirmation CRAF-BRAF (transient) % Inihibition” value is reported as 0.37% and the “Confirmation CRAF-BRAF (transient) % Quench RLuc” value is 80.17%. In addition, the “effect on localization of Plk1 in mitotic cells” value in experiment [3] is “did not result in a significant decrease”. In experiment [4] (10-25 μM, 2 h), the “Primary screen Plk1-Map (stable) % Inihibition” value was 67.34% and the “Primary screen Plk1-Map (stable) % Quench RLuc” value amounted to 86.24%. In experiment [4] (confirmation screen), the “Confirmation Plk1-Map (stable) % Inihibition” value came out at 30.79% and the “Confirmation Plk1-Map (stable) % Quench RLuc” value is given as 81.37%. Moreover, in experiment [5], the “effect on mitotic index, purchased compounds” value is “effective”. Besides, in experiment [6], the “disruption of the PBD-Map interaction in FP” value is reported as “disrupted the PBD-Map interaction”. Further, in experiment [7], the “Confirmation Plk1-Map (transient) % Inihibition” value turned out to be 30.06% and the “Confirmation Plk1-Map (transient) % Quench RLuc” value was found to be 74.57%.
